Test results taken from patent US5916920A, “3-substituted Bicyclo[3.1.0]hexane-6-carboxylic acids” (Eli Lilly and Company, priority 1996, dated 1999).
Blank lines part the entries; values can stand above or below the compound they belong to.

Assays:
[1] = mouse elevated plus maze model; assay type: in vivo
[2] = mouse conditioned active avoidance response model; assay type: in vivo
Description: (Pfeiffer & Jenney, Ann. N.Y. Acad. Sci., 66:[…], 1957; Maffii, J. Pharm. Pharmacol., 11: 129-139, 1959; Cook & Weidley, Ann; N.Y. Acad. Sci., 66: […], 1957; Janke, Handbook of Experimental Pharmacology, Vol. 55/I, New York: Plenum Press, 1978).

[3] = test system: metabotropic glutamate receptors; assay: selective displacement of 1S,3R-ACPD-sensitive [^3 H]glutamate binding to rat brain cell membranes; settings: crude membranes of rat forebrain
Description: The binding of [^3 H]glutamate was conducted with crude membranes of rat forebrain as described by Schoepp and True. Schoepp and True, Neuroscience Lett., 145, 100-104 (1992) and Wright et al., J. Neurochemisty 63: 938-945 (1994).

Compound: Cc1cccc(C[C@@H]2C[C@H]3[C@H](C(=O)O)[C@H]3[C@]2(N)C(=O)O)c1 (relative stereo) [Example 4, 1SR,2SR,3SR,5RS,6SR-Amino-3-((3-methyl)benzyl)bicyclo[3.1.0]hexane-2,6-dicarboxylic acid]
- anxiolytic effect in the mouse elevated plus maze model [1]: anxiolytic effect

Compound: N[C@@]1(C(=O)O)[C@H](Cc2ccc(F)c(F)c2F)C[C@H]2[C@H](C(=O)O)[C@H]21 (relative stereo) [Example 25, 1SR,2SR,3SR,5RS,6SR-2-Amino-3-((2,3,4-trifluoro)benzyl)bicyclo[3.1.0]hexane-2,6-dicarboxylic acid]
- neuroleptic properties in the mouse conditioned active avoidance response model [2]: neuroleptic properties

- IC50 [3]: 320 nM
Compound: Mixture of 1SR,2SR,3RS,5RS,6SR-2-amino-3-(3-phenylpropyl)bicyclo[3.1.0]-hexane-2,6-dicarboxylic acid and 1SR, 2RS, 3RS, 5RS, 6SR-2-amino-3-(3-phenylpropyl)bicyclo[3.1.0]hexane-2,6-dicarboxylic acid [Example 1]
